The values below are quoted from earlier work in US20230340373A1, “CLEANING WIPES” (Tygrus LLC, priority 2022, published 2023).

Broadly, the pKa is the pH at which an ionisable group is half protonated.

The conditions of the data set: 25 C; cited from earlier work.

With `C=CCc1ccc(O)c(OC)c1` [Eugenol], the pKa was 10.19.
